Source: patent EP2608671B1, “COMPOUNDS FOR TREATMENT OF CANCER” (Gtx, Inc., priority 2010, dated 2012)
Read-outs that look alike come from different tables or passages of the source.

Assays:
PC-3 = experiment: cells
Description: (§1) The only compounds which belong to the invention are the ones falling under the scope of formula (XI).
Cells were stained with SRB solution.
Cells. […] Cells between the third and fifth passages were used for experiments.
Cell growth inhibition studies. […] Cells were stained with sulphorhodamine B (SRB) solution.

A375 = experiment: SRB cell growth inhibition (cytotoxicity) assay; assay type: cell-based, human
B16-F1 = experiment: SRB cell growth inhibition (cytotoxicity) assay; assay type: cell-based, mouse
Description: as §1

PPC-1 [1] = experiment: cells; details: Homo sapiens
DU 145 = experiment: cells; details: Homo sapiens
[2] = system: prostate cancer cell lines (LNCaP, DU 145, PC-3, PPC-1); experiment: SRB cytotoxicity, prostate cancer cell panel (text summaries); assay type: cell-based; details: Homo sapiens, read-out: IC50 against prostate cancer cells
Description: as §1

LNCaP = experiment: cells; details: Homo sapiens
[3] = system: melanoma cell lines (A375, WM-164, B16-F1) and prostate cancer cell lines (LNCaP, DU 145, PC-3, PPC-1); experiment: SRB cytotoxicity, melanoma and prostate cell panel (averages); assay type: cell-based; details: for antiproliferative activity: summary of Table 3
Description: as §1

[4] = rat; for CL (mL/min/kg), systemic clearance / Vss (L/kg), volume of distribution: IV, […] (1h, 2r), 5 mg/kg (5Ha, 5Hc); for F (%), percent oral bioavailability: Table 4, 10 mg/kg
OVCAR-8 = experiment: SRB growth inhibition, MDR model parent line; assay type: cell-based, human; details: Homo sapiens, OVCAR-8; Table 5A; read-out: IC50 (nM), OVCAR-8
NCI/ADR-RES = experiment: SRB growth inhibition, P-gp over-expressing MDR line; assay type: cell-based, human; details: for IC50: Homo sapiens, NCI/ADR-RES, P-gp over-expressed MDR cell line, Table 5A, read-out: IC50 (nM), NCI/ADR-RES; for Resistance factor: NCI/ADR-RES vs OVCAR-8, 5760 min
WM-164 = experiment: SRB cell growth inhibition (cytotoxicity) assay; assay type: cell-based, human
PPC-1 [5] = system: PPC-1
[6] = Homo sapiens, PC-3, 96 h, read-out: IC50 ± SEM (nM), PC-3
[7] = Homo sapiens, A-375, 96 h; read-out: IC50 ± SEM (nM), A375
[8] = Mus musculus, B16-F1; read-out: IC50 ± SEM (nM), B16-F1
[9] = PPC-1, 96 h, read-out: IC50 ± SEM (nM), PPC-1
[10] = DU-145, 96 h, read-out: IC50 ± SEM (nM), DU 145
[11] = 96 h, read-out: IC50 ± SEM (nM), LNCaP
[12] = summary over LNCaP, PC-3, DU-145, PPC-1
[13] = Homo sapiens, A-375; A375 melanoma cells, 48 h, SRB; read-out: IC50 ± SEM (nM) A375
[14] = Mus musculus; B16-F1 melanoma cells, 48 h, SRB; read-out: IC50 ± SEM (nM) B16-F1
[15] = DU-145, 96 h, read-out: IC50 ± SEM (nM) Du 145
[16] = Homo sapiens, WM164 melanoma cells, 48 h, SRB, read-out: IC50 ± SEM (nM) WM164
[17] = ABI compounds, Tables 11-13, read-out: IC50 (average over cell lines)

## COc1cc(C(=O)c2cc(-c3ccccc3)ncn2)cc(OC)c1OC [1b, (6-Phenylpyrimidin-4-yl)(3,4,5-trimethoxyphenyl)methanone]
PC-3; [6]
  IC50: 8300 nM
A375; [7]
  IC50: > 30000 nM
B16-F1; [8]
  IC50: > 30000 nM
PPC-1 [1]; [9]
  IC50: 3700 nM
DU 145; [10]
  IC50: 6900 nM
[2]; summary of Table 1
  IC50: 3700 to 8300 nM
LNCaP; [11]
  IC50: 7000 nM

## COc1cc(C(=O)c2ccc(-c3ccccc3)o2)cc(OC)c1OC [1d, (5-Phenylfuran-2-yl)(3,4,5-trimethoxyphenyl)methanone]
PC-3; [6]
  IC50: 21 nM
A375; [7]
  IC50: 27 ± 8 nM
B16-F1; [8]
  IC50: 151 ± 24 nM
PPC-1 [1]; [9]
  IC50: 20 nM
DU 145; [10]
  IC50: 35 nM
[2]; [12]
  IC50: 12 to 35 nM
LNCaP; [11]
  IC50: 23 nM

## COc1cc(C(=O)c2cnc(-c3ccccc3)s2)cc(OC)c1OC [1e, (2-Phenylthiazol-5-yl)(3,4,5-trimethoxyphenyl)methanone]
PC-3; [6]
  IC50: > 10000 nM
A375; [7]
  IC50: 13600 ± 3800 nM
B16-F1; [8]
  IC50: 12500 ± 5200 nM
PPC-1 [1]; [9]
  IC50: > 10000 nM
DU 145; [10]
  IC50: > 10000 nM
[2]; summary of Table 1
  IC50: > 10000 nM
LNCaP; [11]
  IC50: > 10000 nM

## COc1cc(C(=O)c2csc(-c3ccccc3)c2)cc(OC)c1OC [1f, (5-Phenylthiophen-3-yl)(3,4,5-trimethoxyphenyl)methanone]
PC-3; [6]
  IC50: 12 nM
A375; [7]
  IC50: 15 ± 6 nM
B16-F1; [8]
  IC50: 72 ± 15 nM
PPC-1 [1]; [9]
  IC50: 15 nM
DU 145; [10]
  IC50: 26 nM
[2]; [12]
  IC50: 12 to 35 nM

## CNCc1ccc(-c2nc(C(=O)c3cc(OC)c(OC)c(OC)c3)cs2)cc1.Cl [2s, (2-(4-((Methylamino)methyl)phenyl)thiazol-4-yl)(3,4,5-trimethoxyphenyl)methanone hydrochloride]
PC-3; [6]
  IC50: > 10000 nM
A375; Homo sapiens, A-375, 96 h, read-out: IC50 ± SEM (nM), A375
  IC50: > 10000 nM
B16-F1; Mus musculus, B16-F1, read-out: IC50 ± SEM (nM), B16-F1
  IC50: > 10000 nM
[3]
  antiproliferative activity: abrogated activity
PPC-1 [1]; [9]
  IC50: ~1000 nM
DU 145; [10]
  IC50: ~10000 nM
LNCaP; [11]
  IC50: 114 ± 80 nM

## COc1cc(C(=O)c2csc(-c3ccc(CN(C)C)cc3)n2)cc(OC)c1OC.Cl [2u, (2-(4-((Dimethylamino)methyl)phenyl)thiazol-4-yl)(3,4,5-trimethoxyphenyl)methanone hydrochloride]
PC-3; [6]
  IC50: > 10000 nM
A375; [7]
  IC50: > 10000 nM
B16-F1; [8]
  IC50: > 10000 nM
[3]
  antiproliferative activity: abrogated activity
PPC-1 [1]; [9]
  IC50: > 10000 nM
DU 145; [10]
  IC50: > 10000 nM
LNCaP; [11]
  IC50: 1020 ± 200 nM

## COc1cc(C(=O)c2csc(Nc3ccccc3)n2)cc(OC)c1OC.Cl [5Ha, (2-(Phenylamino)thiazol-4-yl)(3,4,5-trimethoxyphenyl)methanone hydrochloride salt]
[4]
  CL (mL/min/kg), systemic clearance: 17 ± 3 mL/min/kg
  Vss (L/kg), volume of distribution: 1.4 ± 0.2 L/kg
  F (%), percent oral bioavailability: 11%

## COc1cc(C(=O)c2csc(Nc3ccc(F)cc3)n2)cc(OC)c1OC.Cl [5Hc, (2-(p-Fluorophenylamino)thiazol-4-yl)(3,4,5-trimethoxyphenyl)methanone hydrochloride salt]
[4]
  CL (mL/min/kg), systemic clearance: 13 ± 2 mL/min/kg
  Vss (L/kg), volume of distribution: 1.4 ± 0.2 L/kg
  F (%), percent oral bioavailability: 21%
[4]; in vivo, po
  increased exposure (AUC) by the oral route as compared to 1h: more than 4.3 fold

## COc1cc(C(=O)c2csc(Nc3ccc(C)cc3)n2)cc(OC)c1OC [5b, (2-(p-Tolylamino)thiazol-4-yl)(3,4,5-trimethoxyphenyl)methanone]
OVCAR-8
  IC50: 28 nM
NCI/ADR-RES
  IC50: 21 nM
  Resistance factor: 0.8

## COc1cc(C(=O)c2csc(Nc3ccc(F)cc3)n2)cc(OC)c1OC [5c, (2-(p-Fluorophenylamino)thiazol-4-yl)(3,4,5-trimethoxyphenyl)methanone]
PC-3; [6]
  IC50: 43 ± 1 nM
OVCAR-8
  IC50: 44 ± 3 nM
DU 145; [10]
  IC50: 63 ± 1 nM
NCI/ADR-RES
  IC50: 25 ± 6 nM
  Resistance factor: 0.6
LNCaP; [11]
  IC50: 41 ± 1 nM

## COc1cc(C(=O)c2c[nH]c(Nc3ccccc3)n2)cc(OC)c1OC [5e, (2-(Phenylamino)-1H-imidazol-4-yl)(3,4,5-trimethoxyphenyl)methanone]
PC-3; [6]
  IC50: > 1000 nM
PPC-1 [1]; [9]
  IC50: > 1000 nM
DU 145; [10]
  IC50: > 1000 nM
[2]; [12]
  IC50: > 1000 nM
LNCaP; [11]
  IC50: > 1000 nM

## O=C(c1ccc(F)cc1)c1cn(S(=O)(=O)c2ccccc2)c(-c2ccc(OCc3ccccc3)cc2)n1 [11jb, (2-(4-(benzyloxy)phenyl)-1-(phenylsulfonyl)-1H-imidazol-4-yl)(4-fluorophenyl)methanone]
PC-3; [6]
  IC50: 75 ± 0.5 nM
A375; [13]
  IC50: 64 ± 7 nM
B16-F1; [14]
  IC50: 110 ± 15 nM
[3]; Prostate cell, ABI compounds, Tables 11-13, read-out: IC50 (average over cell lines)
  IC50: 61 nM
PPC-1 [1]; [9]
  IC50: 38 ± 0.2 nM
DU 145; [15]
  IC50: 58 ± 1 nM
WM-164; [16]
  IC50: 48 ± 5 nM
LNCaP; [11]
  IC50: 35 ± 1 nM

## COc1cc(C(=O)c2c[nH]c(-c3ccccc3)n2)cc(OC)c1OC [12aa, (2-phenyl-1H-imidazol-4-yl)(3,4,5-trimethoxyphenyl)methanone]
PC-3; Homo sapiens, PC-3, 96 h, read-out: IC50 (nM), PC-3
  IC50: 288 nM
A375; Homo sapiens, A-375, 48 h, read-out: IC50 (nM), A375
  IC50: 160 nM
B16-F1; Mus musculus, B16-F1, 48 h, read-out: IC50 (nM), B16-F1
  IC50: 120 nM
[3]; [17]
  IC50: 160 nM
PPC-1 [1]; PPC-1, 96 h, read-out: IC50 (nM), PPC-1
  IC50: 133 nM
DU 145; DU-145, 96 h, read-out: IC50 (nM), Du 145
  IC50: 196 nM
WM-164; Homo sapiens, WM164, 48 h, read-out: IC50 (nM), WM164
  IC50: 10 nM
LNCaP; 96 h, read-out: IC50 (nM), LNCaP
  IC50: 152 nM

## COc1ccc(-c2nc(C(=O)c3cc(OC)c(OC)c(OC)c3)c[nH]2)cc1OC [12ha, (2-(3,4-dimethoxyphenyl)-1H-imidazol-4-yl)(3,4,5-trimethoxyphenyl)methanone]
B16-F1; Mus musculus, B16-F1, 48 h, read-out: IC50 ± SEM (nM) B16-F1
  IC50: 1400 ± 200 nM
[3]; [17]
  IC50: 330 nM
WM-164; Homo sapiens, WM164, 48 h, read-out: IC50 ± SEM (nM) WM164
  IC50: 191 ± 18 nM

## O=C(c1ccc(F)cc1)c1c[nH]c(-c2ccccc2C(F)(F)F)n1 [12ib, (4-fluorophenyl)(2-(2-(trifluoromethyl)phenyl)-1 H-imidazol-4-yl)methanone]
PC-3; [6]
  IC50: > 10000 nM
A375; [13]
  IC50: > 10000 nM
B16-F1; [14]
  IC50: > 10000 nM
[3]; Prostate cell, read-out: IC50 (average over cell lines)
  IC50: > 10000 nM
PPC-1 [1]; [9]
  IC50: > 10000 nM
DU 145; [15]
  IC50: > 10000 nM
WM-164; [16]
  IC50: > 10000 nM
LNCaP; [11]
  IC50: > 10000 nM

## COc1cc(C(=O)[C@H]2COC(c3ccccc3)=N2)cc(OC)c1OC [35a, (2R)-(2-Phenyl-4,5-dihydro-oxazol-4-yl)-(3,4,5-trimethoxy-phenyl)-methanone]
A375; SRB assay, 96 h; Tables 1, 2, 3, 5B, 5C; read-out: IC50 ± SEM (nM), A375
  IC50: 500 ± 100 nM
PPC-1 [5]; read-out: IC50 ± SEM (nM), PPC-1, SRB assay, 96 h, Tables 1, 2, 3, 5B, 5C
  IC50: 1100 ± 100 nM
B16-F1; SRB assay; Tables 1, 2, 3, 5B, 5C; read-out: IC50 ± SEM (nM), B16-F1
  IC50: 6500 ± 800 nM

## O=C(c1ccc2[nH]ccc2c1)c1csc(-c2cc3ccccc3[nH]2)n1 [compound 21, (2-(1H-indol-2-yl)thiazol-4-yl)(1H-indol-5-yl)methanone]
PC-3; Homo sapiens, PC-3, read-out: IC50 (nM), PC-3
  IC50: 403 nM
A375; Homo sapiens, A-375; Table 6A; read-out: IC50 (nM), A375
  IC50: 383 nM
B16-F1; Mus musculus, B16-F1; Table 6A; read-out: IC50 (nM), B16-F1
  IC50: 924 nM
[3]; Prostate cell, summary of Tables 2, 3, 21, read-out: IC50 range over tested melanoma and prostate cell lines
  IC50: 76 to 116 nM
PPC-1 [1]; PPC-1, read-out: IC50 (nM), PPC-1
  IC50: 216 nM
DU 145; DU-145, read-out: IC50 (nM), DU 145
  IC50: 435 nM
WM-164; Homo sapiens, WM164, Table 6A, read-out: IC50 (nM), WM164
  IC50: 408 nM
LNCaP; read-out: IC50 (nM), LNCaP
  IC50: 314 nM

## (1-(phenylsulfonyl)-2-(1-(phenylsulfonyl)-1H-indol-3-yl)-1H-imidazol-4-yl)(3,4,5-trimethoxyphenyl)methanone [17yaa]
PC-3; read-out: IC50 (nM), PC-3, Table 6A
  IC50: 148 nM
A375; Table 6A; read-out: IC50 (nM), A375
  IC50: 481 nM
PPC-1 [5]; read-out: IC50 (nM), PPC-1, Table 6A
  IC50: 209 nM
B16-F1; Table 6A; read-out: IC50 (nM), B16-F1
  IC50: 539 nM
WM-164; Table 6A, read-out: IC50 (nM), WM164
  IC50: 468 nM
